# Non-standard residues stand in square brackets, D forms with d. Cit = NC(=O)NCCC[C@H](N)C(=O)O
# Legend:
# [1] = system: murine E^k MHC class II allele; assay: antigenic peptide prepulse assay, E^k allele (fixed APC prepulsed with PGCC81-104); format: cell-based; settings: for Activity in antigenic peptide prepulse assay, E^k (baseline = 1.0): prepulse 1.25 μM antigenic peptide; for Activity in antigenic peptide prepulse assay, E^k (baseline = 1): Table 23, as printed: antigenic peptide prepulse 64 μM, AE peptide 1:8 μM; for Activity in antigenic peptide prepulse assay, E^k (baseline without AE peptide = 1.00): Table 19, prepulse 20 μM PGCC81-104
# Protocol: (§1) In a second type of assay, the “peptide prepulse assay”, the antigenic peptide is incubated with paraformaldehyde-fixed APC for 6 h. The APC are washed and incubated for 24 h with the AE101 series homolog and the T cell hybridoma specific for the antigenic peptide. After that incubation, an aliquot of the culture supernatant is transferred to a second culture to measure the relative degree of T hybridoma stimulation, as reflected in the effect of released interleukins on the growth of an interleukin-dependent, indicator cell line, as described above.
# (§2) The two above described assays measure different aspects of the molecular mechanism of the AE101 series of peptides. In the “simultaneous assay”, AE101 series peptides are thought to induce the release of endogenously bound peptides and to permit the binding of the second, specific antigenic peptide which is relatively abundant in the culture fluid. The AE101 series peptides enhance antigenic peptide-specific T cell responses in simultaneous assays. In the “peptide prepulse” assay, the specific antigenic peptide becomes bound to MHC class II molecules on the surface of the fixed APC during the 6 h prepulse incubation. The effect of the AE101 series homologs is then thought to release that antigenic peptide, resulting in an apparent suppression of the immune response.
# (§3) The AE101 series peptides are thought to contact the MHC class II molecules at a discrete site outside the antigenic peptide-binding groove. AE101 peptide binding to this “Ii-KEY” site is thought to induce a conformational change in the MHC class II molecules accelerating the dissociation of previously bound antigenic peptide. […] The AE101 series peptides thus inhibit antigenic peptide-specific T cell responses in the “peptide prepulse” assays.
# (§4) Antigenic peptide-specific T cell activation was measured by the following procedure. Mitomycin C-treated A20 cells (A^dE^d) or CH27 cells APC (A^kE^k) were generated by incubating 5×10^6 cells/mL for 20 min at 37° C. with 0.025 mg/mL of mitomycin C (Sigma) in Dulbecco's Modified Eaglel's Medium (DMEM)/10 mM N-2(hydroxyethylpiperazine-N″[2-ethanesulfonic acid] (HEPES), followed by two washes with four volumes of DMEM-5% fetal calf serum (FCS), 10 mM HEPES. Fixed APC were generated by treating 1×10^6 cells/mL for 5 min with 0.5% paraformaldehyde in PBS (pH 7.2), followed by two washes with four volumes of DMEM-10% FCS, 10 mM HEPES. T cell hybridomas were irradiated 2200 rads before each assay.
# (§5) The “peptide prepulse assay” was carried out under essentially the same conditions as described for the “simultaneous assay” with the following modifications. Fixed APC were first incubated for 6 h at 1×10^6 cells/mL in complete DMEM-5% FCS in 24-well microculture plates (1 mL/well) with antigenic peptide, followed by four washes with 10 volumes of DMEM-5% FCS. The cells were then exposed to varying concentrations of AE101 series peptide (64 μM, 16 μM, 4 μM, and 1 μM) for 24 h in the presence of the T cell hybridoma specific to the antigenic peptide. Interleukin release from these cultures was measured by proliferation of HT-2 cells to interleukins in supernatants transferred from the primary culture. Generally, a single dose of 64 μM of each AE101 series peptide was used. The baseline T cell response was measured by culturing T hybridoma cells with the antigenic peptide-prepulsed APC in the absence of AE101 series peptides.
# Table 19: Activities of C-terminal truncation analogs of AE101 in an antigenic peptide prepulse assay. […] Paraformaldehyde-treated APC (fixed APC) expressing MHC class II molecules were incubated with antigenic peptide for 6 h (HEL106-116 for E^d and PGCC81-104 for E^k). After this incubation, the prepulsed APC were washed and cultured with T hybridoma cells and AE101 series peptides. The antigenic peptide concentration during the prepulse was 12 μM for Ed and 20 μM for E^k. The AE101 series peptide concentrations were 64 μM for E^d and 16 μM for E^k. […]
# [2] = target: T1, murine E^d MHC class II allele (Mus musculus, UniProt P01904+P01915); assay: antigenic peptide prepulse assay, E^d allele (fixed APC prepulsed with HEL106-116); format: cell-based; set-up: The A20 and CH27 B cell lymphoma lines express H-2^d and H-2^k alleles, respectively; endogenous in cells; host or cells: A20 B cell lymphoma (mitomycin C-treated or paraformaldehyde-fixed); settings: for Activity in antigenic peptide prepulse assay, E^d (baseline = 1.00) / Activity in antigenic peptide prepulse assay, E^d (baseline = 1.0) / Activity in antigenic peptide prepulse assay, E^d (baseline without AE peptide = 1.00): AE peptide 64 μM; for Activity in antigenic peptide prepulse assay, E^d (baseline = 1): Table 23, as printed: antigenic peptide prepulse 64 μM, AE peptide 1:4 μM; for Activity in antigenic peptide prepulse assay, E^d (baseline without AE peptide = 1.00): Table 19, prepulse 12 μM HEL106-116
# T1 sequence (P01904 26-255): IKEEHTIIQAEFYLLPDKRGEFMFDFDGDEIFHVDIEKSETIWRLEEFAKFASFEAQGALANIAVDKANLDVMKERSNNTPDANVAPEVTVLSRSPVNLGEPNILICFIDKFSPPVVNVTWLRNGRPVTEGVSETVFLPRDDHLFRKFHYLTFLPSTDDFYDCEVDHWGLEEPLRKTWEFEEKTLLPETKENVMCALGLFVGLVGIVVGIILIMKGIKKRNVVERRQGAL
# T1 sequence (P01915 27-264 limits assumed): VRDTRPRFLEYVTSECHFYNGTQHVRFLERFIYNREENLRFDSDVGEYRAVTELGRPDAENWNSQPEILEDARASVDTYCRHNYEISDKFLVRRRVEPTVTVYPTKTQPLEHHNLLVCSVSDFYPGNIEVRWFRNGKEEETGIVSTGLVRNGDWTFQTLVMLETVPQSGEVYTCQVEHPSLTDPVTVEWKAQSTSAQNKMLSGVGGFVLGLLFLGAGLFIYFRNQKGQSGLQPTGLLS
# Protocol: as §1, §2, §3, §4, §5
# […] […] Paraformaldehyde-treated APC (fixed APC) expressing MHC class II molecules were incubated with antigenic peptide for 6 h (HEL106-116 for E^d and PGCC81-104 for E^k). After this incubation, the prepulsed APC were washed and cultured with T hybridoma cells and AE101 series peptides. […] The AE101 series peptide concentrations were 64 μM for E^d and 16 μM for E^k. The dilutions of supernatant taken into the HT-2 cell assay were 1:4 for Ed and 1:2 for E^k.
# [3] = Table 20, AE peptide 16 μM, prepulse 20 μM antigenic peptide, supernatant 1:2
# [4] = Table 20, prepulse 3 μM antigenic peptide, supernatant 1:2
# [5] = Table 24, AE peptide 64 μM, prepulse 0.625 μM antigenic peptide, supernatant 1:8
# [6] = Table 24, prepulse 24 μM antigenic peptide, supernatant 1:4
# [7] = Table 26, AE peptide 64 μM, supernatant 1:8
# [8] = Table 26, prepulse 24 μM antigenic peptide, supernatant 1:2
# [9] = Table 22, AE peptide 16 μM, prepulse 20 μM antigenic peptide, supernatant 1:2
# [10] = Table 25, AE peptide 64 μM, prepulse 2.5 μM antigenic peptide, supernatant 1:10
# [11] = Table 22, prepulse 6 μM antigenic peptide, supernatant 1:8
# [12] = Table 25, prepulse 24 μM antigenic peptide, supernatant 1:4
# [13] = AE peptide 16 μM, supernatant 1:2
substance,measurement,setting,value
Ac-Y H MKLPKSAK-NH2 [AE133],"Activity in antigenic peptide prepulse assay, E^k (baseline = 1.00)",[1]; [3],0.86
same,"Activity in antigenic peptide prepulse assay, E^d (baseline = 1.00)",[2]; [4],0.39
Ac-Y M MKLPKSAK-NH2 [AE141],"Activity in antigenic peptide prepulse assay, E^k (baseline = 1.00)",[1]; [3],0.52
same,"Activity in antigenic peptide prepulse assay, E^d (baseline = 1.00)",[2]; [4],0.41
Ac-LR (mL) KLPK-NH2 [AE302],"Activity in antigenic peptide prepulse assay, E^k (baseline = 1.00)",[1]; [5],0.85
same,"Activity in antigenic peptide prepulse assay, E^d (baseline = 1.00)",[2]; [6],0.82
Ac-Y Q MKLPKSAK-NH2 [AE138],"Activity in antigenic peptide prepulse assay, E^k (baseline = 1.00)",[1]; [3],0.85
same,"Activity in antigenic peptide prepulse assay, E^d (baseline = 1.00)",[2]; [4],0.73
Ac-LRM M LPK-NH2 (Ac-LRMMLPK-NH2) [AE220],"Activity in antigenic peptide prepulse assay, E^k (baseline = 1.0)",[1]; [7],0.92
same,"Activity in antigenic peptide prepulse assay, E^d (baseline = 1.0)",[2]; [8],0.73
Ac-LRMKLPK-NH2 [AE114],"Activity in antigenic peptide prepulse assay, E^k (baseline = 1.00)",[1]; [9],0.15
same,"Activity in antigenic peptide prepulse assay, E^k (baseline = 1)",[1]; supernatant 1:2,0.78
same,"Activity in antigenic peptide prepulse assay, E^k (baseline = 1.00)",[1]; [5],0.78
same,"Activity in antigenic peptide prepulse assay, E^k (baseline = 1.00)",[1]; [10],0.79
same,"Activity in antigenic peptide prepulse assay, E^k (baseline = 1.0)",[1]; [7],0.98
same,"T cell response relative to baseline without AE peptide (None = 1.0), E^k","[1]; Table 27, antigenic peptide prepulse 1.25 μM, AE101 series peptide 64 μM, HT-2 supernatant dilution 1:8",0.69
same,"Activity in antigenic peptide prepulse assay, E^k (baseline = 1.0)","[1]; Table 28, AE peptide 64 μM, supernatant 1:4",0.78
same,"Activity in antigenic peptide prepulse assay, E^d (baseline = 1.00)",[2]; [11],0.02
same,"Activity in antigenic peptide prepulse assay, E^d (baseline = 1)",[2]; supernatant 1:8,0.41
same,"Activity in antigenic peptide prepulse assay, E^d (baseline = 1.00)",[2]; [6],0.41
same,"Activity in antigenic peptide prepulse assay, E^d (baseline = 1.00)",[2]; [12],0.31
same,"Activity in antigenic peptide prepulse assay, E^d (baseline = 1.0)",[2]; [8],0.28
same,"T cell response relative to baseline without AE peptide (None = 1.0), E^d","[2]; Table 27, antigenic peptide prepulse 24 μM, AE101 series peptide 64 μM, HT-2 supernatant dilution 1:8",0.32
same,"Activity in antigenic peptide prepulse assay, E^d (baseline = 1.0)","[2]; Table 28, prepulse 24 μM antigenic peptide, supernatant 1:4",0.41
Ac-YRM-NH2 [AE118],"Activity in antigenic peptide prepulse assay, E^k (baseline without AE peptide = 1.00)",[1]; [13],0.35
same,"Activity in antigenic peptide prepulse assay, E^d (baseline without AE peptide = 1.00)",[2]; supernatant 1:4,0.68
Ac-YRMKL-NH2 [AE116],"Activity in antigenic peptide prepulse assay, E^k (baseline without AE peptide = 1.00)",[1]; [13],0.10
same,"Activity in antigenic peptide prepulse assay, E^d (baseline without AE peptide = 1.00)",[2]; supernatant 1:4,0.80
Ac-L r MKLPK-NH2 [AE161],"Activity in antigenic peptide prepulse assay, E^k (baseline = 1.00)",[1]; [9],0.85
same,"Activity in antigenic peptide prepulse assay, E^d (baseline = 1.00)",[2]; [11],0.30
Ac-ARNKLPK-NH2 [AE344],"Activity in antigenic peptide prepulse assay, E^k (baseline = 1.00)",[1]; [10],0.76
same,"Activity in antigenic peptide prepulse assay, E^d (baseline = 1.00)",[2]; [12],0.46
Ac- (mL) RMKLPK-NH2 [AE174],"Activity in antigenic peptide prepulse assay, E^k (baseline = 1)",[1]; supernatant 1:2,0.81
same,"Activity in antigenic peptide prepulse assay, E^k (baseline = 1.00)",[1]; [5],0.81
same,"Activity in antigenic peptide prepulse assay, E^d (baseline = 1)",[2]; supernatant 1:8,0.6
same,"Activity in antigenic peptide prepulse assay, E^d (baseline = 1.00)",[2]; [6],0.60
Ac-LR N KLPK-NH2 (Ac-LRNKLPK-NH2) [AE202],"Activity in antigenic peptide prepulse assay, E^k (baseline = 1.00)",[1]; [10],0.84
same,"Activity in antigenic peptide prepulse assay, E^d (baseline = 1.00)",[2]; [12],0.30
Ac-Y K MKLPKSAK-NH2 [AE134],"Activity in antigenic peptide prepulse assay, E^k (baseline = 1.00)",[1]; [3],0.43
same,"Activity in antigenic peptide prepulse assay, E^k (baseline = 1.0)",[1]; [7],0.98
same,"Activity in antigenic peptide prepulse assay, E^d (baseline = 1.00)",[2]; [4],0.60
same,"Activity in antigenic peptide prepulse assay, E^d (baseline = 1.0)",[2]; [8],0.83
Ac-LRLKYPK-NH2 [AE301],"Activity in antigenic peptide prepulse assay, E^k (baseline = 1.00)",[1]; [5],0.80
same,"Activity in antigenic peptide prepulse assay, E^k (baseline = 1.00)",[1]; [10],0.86
same,"Activity in antigenic peptide prepulse assay, E^k (baseline = 1.0)",[1]; [7],0.99
same,"Activity in antigenic peptide prepulse assay, E^d (baseline = 1.00)",[2]; [6],0.48
same,"Activity in antigenic peptide prepulse assay, E^d (baseline = 1.00)",[2]; [12],0.66
same,"Activity in antigenic peptide prepulse assay, E^d (baseline = 1.0)",[2]; [8],0.34
Ac-LRMKL p K-NH2 [AE165],"Activity in antigenic peptide prepulse assay, E^k (baseline = 1.00)",[1]; [9],0.22
same,"Activity in antigenic peptide prepulse assay, E^d (baseline = 1.00)",[2]; [11],0.25
Ac-LR (mL) KyPk-NH2 [AE306],"Activity in antigenic peptide prepulse assay, E^k (baseline = 1.00)",[1]; [5],1.00
same,"Activity in antigenic peptide prepulse assay, E^d (baseline = 1.00)",[2]; [6],0.68
Ac-Y[Cit]MKLPKSAK-NH2 [AE131],"Activity in antigenic peptide prepulse assay, E^k (baseline = 1.00)",[1]; [3],0.71
same,"Activity in antigenic peptide prepulse assay, E^k (baseline = 1.00)",[1]; [10],0.98
same,"Activity in antigenic peptide prepulse assay, E^d (baseline = 1.00)",[2]; [4],0.69
same,"Activity in antigenic peptide prepulse assay, E^d (baseline = 1.00)",[2]; [12],0.61
Ac-ARNKNPF-NH2 [AE347],"Activity in antigenic peptide prepulse assay, E^k (baseline = 1.00)",[1]; [10],1.10
same,"Activity in antigenic peptide prepulse assay, E^d (baseline = 1.00)",[2]; [12],0.64

# From patent US6835382B2, “Ii peptide therapeutics to enhance antigen presentation” (University of Massachusetts, priority 1996, dated 2004)
